Reference: patent US6689773B2, “Uracil substituted phenyl sulfamoyl carboxamides” (BASF Aktiengesellschaft, priority 2000, dated 2004)

Columns and labels:
Format in all cases: in vivo
[1] = tested on: SETVI, Green foxtail, Setaria viridis, (L.)Beau; experiment: Preemergence herbicidal evaluation (Example 148); details: rating scale 0-9, two to four weeks after treatment
Procedure: (§1) The scale is based upon a visual observation of plant stand, vigor, malformation, size, chlorosis and overall plant appearance as compared with a control.
(§2) The herbicidal activity of the compounds of the present invention was evaluated by the following tests wherein the seeds of a variety of monocotyledonous and dicotyledonous plants were separately mixed with potting soil and planted on top of approximately one inch of soil in separate pint cups. After planting, the cups were sprayed with the selected aqueous acetone solution containing test compound in sufficient quantity to provide the equivalent of about 0.125 to 0.250 kg per hectare of test compound per cup. The treated cups were then placed on greenhouse benches, watered and cared for in accordance with conventional greenhouse procedures. From two to four weeks after treatment, the tests were terminated and each cup was examined and rated according to the rating system provided in Example 94. When more than one test was performed for a given compound, the data were averaged.

[2] = tested on: IPOHE, Morningglory, Ivyleaf, Ipomoea hederacea, (L)Jacq.; experiment: Preemergence herbicidal evaluation (Example 148); details: rating scale 0-9, two to four weeks after treatment
Procedure: as §1, §2

[3] = tested on: ALOMY, Blackgrass, Alopecurus myosuroides; experiment: Preemergence herbicidal evaluation (Example 148); details: rating scale 0-9, two to four weeks after treatment
Procedure: as §1, §2

[4] = tested on: ABUTH, Velvetleaf, Abutilon theophrasti, Medic.; experiment: Preemergence herbicidal evaluation (Example 148); details: rating scale 0-9, two to four weeks after treatment
Procedure: as §1, §2

[5] = tested on: TRZAW, Winter wheat, Tritium Aestivum, L. (Winter); experiment: Preemergence herbicidal evaluation (Example 148); details: rating scale 0-9, two to four weeks after treatment
Procedure: as §1, §2

[6] = tested on: GLXMA, Soybean, Glycine max, (L.) Merr.; experiment: Preemergence herbicidal evaluation (Example 148); details: rating scale 0-9, two to four weeks after treatment
Procedure: as §1, §2

[7] = tested on: ECHCG, Barnyardgrass, Echinochloa crusgalli, (L.)Beau; experiment: Preemergence herbicidal evaluation (Example 148); details: rating scale 0-9, two to four weeks after treatment
Procedure: as §1, §2

[8] = tested on: CHEAL, Lambsquarters, Chenopodium album, L. Common; experiment: Preemergence herbicidal evaluation (Example 148); details: rating scale 0-9, two to four weeks after treatment
Procedure: as §1, §2

[9] = tested on: DIGSA, Crabgrass, (Hairy) L, Digitaria sanguinalis, (L)Scop; experiment: Preemergence herbicidal evaluation (Example 148); details: rating scale 0-9, two to four weeks after treatment
Procedure: as §1, §2

[10] = tested on: ZEAMX, Field corn, Zea mays L.; experiment: Preemergence herbicidal evaluation (Example 148); details: rating scale 0-9, two to four weeks after treatment
Procedure: as §1, §2

[11] = tested on: AMBEL, Ragweed, Common, Ambrosia artemiisifolia, L.; experiment: Preemergence herbicidal evaluation (Example 148); details: rating scale 0-9, two to four weeks after treatment
Procedure: as §1, §2

[12] = tested on: SETVI, Green foxtail, Setaria viridis, (L.)Beau; experiment: Postemergence herbicidal evaluation (Example 147); details: rating scale 0-9, two to three weeks after treatment
Procedure: (§3) Seedling plants were grown in jiffy flats for about two weeks. The test compounds were dispersed in 80/20 acetone/water mixtures containing 1.0% SUN-IT®II, a methylated seed oil, in sufficient quantities to provide the equivalent of about 0.016 to 0.032 kg per hectare of active compound when applied to the plants through a spray nozzle operating at 40 psi for a predetermined time. After spraying, the plants were placed on greenhouse benches and were cared for in accordance with conventional greenhouse procedures. Approximately two to three weeks after treatment, the seedling plants were examined and rated according to the rating scale (0-9) set forth below. Where more than one test is involved for a given compound, the data are averaged. [table] The scale is based upon a visual observation of plant stand, vigor, malformation, size, chlorosis and overall plant appearance as compared with a control. Plant species employed in these evaluations are reported by header abbreviation, common name and scientific name. [table]

[13] = tested on: IPOHE, Morningglory, Ivyleaf, Ipomoea hederacea, (L)Jacq.; experiment: Postemergence herbicidal evaluation (Example 147); details: rating scale 0-9, two to three weeks after treatment
Procedure: as §3

[14] = tested on: ALOMY, Blackgrass, Alopecurus myosuroides; experiment: Postemergence herbicidal evaluation (Example 147); details: rating scale 0-9, two to three weeks after treatment
Procedure: as §3

[15] = tested on: ABUTH, Velvetleaf, Abutilon theophrasti, Medic.; experiment: Postemergence herbicidal evaluation (Example 147); details: rating scale 0-9, two to three weeks after treatment
Procedure: as §3

[16] = tested on: TRZAW, Winter wheat, Tritium Aestivum, L. (Winter); experiment: Postemergence herbicidal evaluation (Example 147); details: rating scale 0-9, two to three weeks after treatment
Procedure: as §3

[17] = tested on: GLXMA, Soybean, Glycine max, (L.) Merr.; experiment: Postemergence herbicidal evaluation (Example 147); details: rating scale 0-9, two to three weeks after treatment
Procedure: as §3

[18] = tested on: ECHCG, Barnyardgrass, Echinochloa crusgalli, (L.)Beau; experiment: Postemergence herbicidal evaluation (Example 147); details: rating scale 0-9, two to three weeks after treatment
Procedure: as §3

[19] = tested on: CHEAL, Lambsquarters, Chenopodium album, L. Common; experiment: Postemergence herbicidal evaluation (Example 147); details: rating scale 0-9, two to three weeks after treatment
Procedure: as §3

[20] = tested on: XANST, Cocklebur, Xanthium strumariam; experiment: Postemergence herbicidal evaluation (Example 147); details: rating scale 0-9, two to three weeks after treatment
Procedure: as §3

[21] = tested on: DIGSA, Crabgrass, (Hairy) L, Digitaria sanguinalis, (L)Scop; experiment: Postemergence herbicidal evaluation (Example 147); details: rating scale 0-9, two to three weeks after treatment
Procedure: as §3

[22] = tested on: ZEAMX, Field corn, Zea mays L.; experiment: Postemergence herbicidal evaluation (Example 147); details: rating scale 0-9, two to three weeks after treatment
Procedure: as §3

[23] = tested on: AMBEL, Ragweed, Common, Ambrosia artemiisifolia, L.; experiment: Postemergence herbicidal evaluation (Example 147); details: rating scale 0-9, two to three weeks after treatment
Procedure: as §3

[24] = tested on: XANST, Cocklebur, Xanthium strumariam; experiment: Preemergence herbicidal evaluation (Example 148); details: rating scale 0-9, two to four weeks after treatment
Procedure: as §1, §2

## CCN(C)S(=O)(=O)NC(=O)c1cc(-n2c(=O)cc(C(F)(F)F)n(C)c2=O)c(F)cc1Cl [Example 66]
[1]; rate 0.125 kg/ha
  Preemergence herbicidal rating SETVI: 4.0
[1]; rate 0.25 kg/ha
  Preemergence herbicidal rating SETVI: 6.0
[2]; rate 0.125 kg/ha
  Preemergence herbicidal rating IPOHE: 9.0
[2]; rate 0.25 kg/ha
  Preemergence herbicidal rating IPOHE: 9.0
[3]; rate 0.125 kg/ha
  Preemergence herbicidal rating ALMOY: 0.0
[3]; rate 0.25 kg/ha
  Preemergence herbicidal rating ALMOY: 2.0
[4]; rate 0.125 kg/ha
  Preemergence herbicidal rating ABUTH: 9.0
[4]; rate 0.25 kg/ha
  Preemergence herbicidal rating ABUTH: 9.0
[5]; rate 0.125 kg/ha
  Preemergence herbicidal rating TRZAW: 1.0
[5]; rate 0.25 kg/ha
  Preemergence herbicidal rating TRZAW: 1.0
[6]; rate 0.125 kg/ha
  Preemergence herbicidal rating GLXMA: 0.0
[7]; rate 0.125 kg/ha
  Preemergence herbicidal rating ECHCG: 4.0
[7]; rate 0.25 kg/ha
  Preemergence herbicidal rating ECHCG: 8.0
[8]; rate 0.125 kg/ha
  Preemergence herbicidal rating CHEAL: 9.0
[8]; rate 0.25 kg/ha
  Preemergence herbicidal rating CHEAL: 9.0
[9]; rate 0.125 kg/ha
  Preemergence herbicidal rating DIGSA: 4.0
[9]; rate 0.25 kg/ha
  Preemergence herbicidal rating DIGSA: 8.0
[10]; rate 0.125 kg/ha
  Preemergence herbicidal rating ZEAMX: 1.0
[10]; rate 0.25 kg/ha
  Preemergence herbicidal rating ZEAMX: 2.0
[11]; rate 0.125 kg/ha
  Preemergence herbicidal rating AMBEL: 9.0
[11]; rate 0.25 kg/ha
  Preemergence herbicidal rating AMBEL: 9.0
[12]; rate 0.016 kg/ha
  Postemergence herbicidal rating SETVI: 8.0
[12]; rate 0.032 kg/ha
  Postemergence herbicidal rating SETVI: 9.0
[13]; rate 0.016 kg/ha
  Postemergence herbicidal rating IPOHE: 9.0
[13]; rate 0.032 kg/ha
  Postemergence herbicidal rating IPOHE: 9.0
[14]; rate 0.016 kg/ha
  Postemergence herbicidal rating ALMOY: 1.0
[14]; rate 0.032 kg/ha
  Postemergence herbicidal rating ALMOY: 2.0
[15]; rate 0.016 kg/ha
  Postemergence herbicidal rating ABUTH: 9.0
[15]; rate 0.032 kg/ha
  Postemergence herbicidal rating ABUTH: 9.0
[16]; rate 0.016 kg/ha
  Postemergence herbicidal rating TRZAW: 5.0
[16]; rate 0.032 kg/ha
  Postemergence herbicidal rating TRZAW: 6.5
[17]; rate 0.016 kg/ha
  Postemergence herbicidal rating GLXMA: 8.0
[17]; rate 0.032 kg/ha
  Postemergence herbicidal rating GLXMA: 9.0
[18]; rate 0.016 kg/ha
  Postemergence herbicidal rating ECHCG: 8.0
[18]; rate 0.032 kg/ha
  Postemergence herbicidal rating ECHCG: 8.0
[19]; rate 0.016 kg/ha
  Postemergence herbicidal rating CHEAL: 8.0
[19]; rate 0.032 kg/ha
  Postemergence herbicidal rating CHEAL: 9.0
[20]; rate 0.016 kg/ha
  Postemergence herbicidal rating XANST: 9.0
[20]; rate 0.032 kg/ha
  Postemergence herbicidal rating XANST: 9.0
[21]; rate 0.016 kg/ha
  Postemergence herbicidal rating DIGSA: 5.0
[21]; rate 0.032 kg/ha
  Postemergence herbicidal rating DIGSA: 6.0
[22]; rate 0.016 kg/ha
  Postemergence herbicidal rating ZEAMX: 7.0
[22]; rate 0.032 kg/ha
  Postemergence herbicidal rating ZEAMX: 7.5
[23]; rate 0.016 kg/ha
  Postemergence herbicidal rating AMBEL: 9.0
[23]; rate 0.032 kg/ha
  Postemergence herbicidal rating AMBEL: 9.0

## COc1cccc(CN(C)S(=O)(=O)NC(=O)c2cc(-n3c(=O)cc(C(F)(F)F)n(C)c3=O)c(F)cc2Cl)c1 [Example 70]
[1]; rate 0.125 kg/ha
  Preemergence herbicidal rating SETVI: 3.0
[1]; rate 0.25 kg/ha
  Preemergence herbicidal rating SETVI: 5.0
[2]; rate 0.125 kg/ha
  Preemergence herbicidal rating IPOHE: 9.0
[2]; rate 0.25 kg/ha
  Preemergence herbicidal rating IPOHE: 9.0
[3]; rate 0.125 kg/ha
  Preemergence herbicidal rating ALMOY: 0.0
[3]; rate 0.25 kg/ha
  Preemergence herbicidal rating ALMOY: 0.0
[4]; rate 0.125 kg/ha
  Preemergence herbicidal rating ABUTH: 9.0
[4]; rate 0.25 kg/ha
  Preemergence herbicidal rating ABUTH: 9.0
[5]; rate 0.125 kg/ha
  Preemergence herbicidal rating TRZAW: 0.0
[5]; rate 0.25 kg/ha
  Preemergence herbicidal rating TRZAW: 1.0
[6]; rate 0.125 kg/ha
  Preemergence herbicidal rating GLXMA: 1.0
[6]; rate 0.25 kg/ha
  Preemergence herbicidal rating GLXMA: 3.0
[7]; rate 0.125 kg/ha
  Preemergence herbicidal rating ECHCG: 2.0
[7]; rate 0.25 kg/ha
  Preemergence herbicidal rating ECHCG: 7.0
[8]; rate 0.125 kg/ha
  Preemergence herbicidal rating CHEAL: 8.0
[8]; rate 0.25 kg/ha
  Preemergence herbicidal rating CHEAL: 9.0
[24]; rate 0.125 kg/ha
  Preemergence herbicidal rating XANST: 8.0
[24]; rate 0.25 kg/ha
  Preemergence herbicidal rating XANST: 9.0
[9]; rate 0.125 kg/ha
  Preemergence herbicidal rating DIGSA: 2.0
[9]; rate 0.25 kg/ha
  Preemergence herbicidal rating DIGSA: 5.0
[10]; rate 0.125 kg/ha
  Preemergence herbicidal rating ZEAMX: 0.0
[10]; rate 0.25 kg/ha
  Preemergence herbicidal rating ZEAMX: 0.0
[11]; rate 0.125 kg/ha
  Preemergence herbicidal rating AMBEL: 9.0
[11]; rate 0.25 kg/ha
  Preemergence herbicidal rating AMBEL: 9.0
[12]; rate 0.016 kg/ha
  Postemergence herbicidal rating SETVI: 4.0
[12]; rate 0.032 kg/ha
  Postemergence herbicidal rating SETVI: 5.0
[13]; rate 0.016 kg/ha
  Postemergence herbicidal rating IPOHE: 9.0
[13]; rate 0.032 kg/ha
  Postemergence herbicidal rating IPOHE: 9.0
[14]; rate 0.016 kg/ha
  Postemergence herbicidal rating ALMOY: 1.0
[14]; rate 0.032 kg/ha
  Postemergence herbicidal rating ALMOY: 1.0
[15]; rate 0.016 kg/ha
  Postemergence herbicidal rating ABUTH: 9.0
[15]; rate 0.032 kg/ha
  Postemergence herbicidal rating ABUTH: 9.0
[16]; rate 0.016 kg/ha
  Postemergence herbicidal rating TRZAW: 4.5
[16]; rate 0.032 kg/ha
  Postemergence herbicidal rating TRZAW: 5.0
[17]; rate 0.016 kg/ha
  Postemergence herbicidal rating GLXMA: 6.5
[17]; rate 0.032 kg/ha
  Postemergence herbicidal rating GLXMA: 7.5
[18]; rate 0.016 kg/ha
  Postemergence herbicidal rating ECHCG: 4.0
[18]; rate 0.032 kg/ha
  Postemergence herbicidal rating ECHCG: 8.0
[19]; rate 0.016 kg/ha
  Postemergence herbicidal rating CHEAL: 6.0
[19]; rate 0.032 kg/ha
  Postemergence herbicidal rating CHEAL: 7.0
[21]; rate 0.016 kg/ha
  Postemergence herbicidal rating DIGSA: 2.0
[21]; rate 0.032 kg/ha
  Postemergence herbicidal rating DIGSA: 3.0
[22]; rate 0.016 kg/ha
  Postemergence herbicidal rating ZEAMX: 7.0
[22]; rate 0.032 kg/ha
  Postemergence herbicidal rating ZEAMX: 7.0
[23]; rate 0.016 kg/ha
  Postemergence herbicidal rating AMBEL: 5.0
[23]; rate 0.032 kg/ha
  Postemergence herbicidal rating AMBEL: 7.0
